20 molecules from publication PMC8151276, “An Integrated Approach toward NanoBRET Tracers for Analysis of GPCR Ligand Engagement” (Molecules, 2021) can be followed below.

This experiment addresses T1, HTR2B (Homo sapiens, UniProt P41595).
T1 construct: purchased Promega (in-house HiBiT-GPCR construct library, NanoBRET)
Description: NanoBRET screen HiBiT-HTR2B in HEK293. The experiment is classed as binding. How it is done:
Each tracer candidate was screened across the entire library of HiBiT-GPCR constructs using NanoBRET as the detection modality. As depicted in Figure 4A, the specificity of interactions was evaluated through decrease in BRET due to competitive displacement of a bound tracer by excess parental compound. Each tracer was analyzed for binding to each HiBiT-GPCR fusion in the absence and in the presence of competing parental compound. Briefly, HEK293 cells were transfected with HiBiT-GPCR constructs diluted into promoterless DNA to reduce expression and maximize translocation to the cell surface. Each tracer candidate was then screened at concentrations of 1 μM and 0.1 μM across cells expressing these fusions. Cells were treated for 1.5 h with tracer either alone or in the presence of 20 μM competing parental compound (i.e., control). BRET was measured upon addition of purified LgBiT and subsequent complementation with HiBiT genetically fused to a GPCR. The specificity of interactions was assessed through a decrease in BRET signal due to competitive displacement of the bound tracer. To further gauge the robustness of these interactions, the fold response over the control (i.e., BRETtracer/BRETcontrol) was calculated. We chose a 1.5-fold response, which translates to ≥7-fold signal over noise as the minimal threshold required to score an interaction as positive.
HiBiT-GPCR DNA constructs were diluted in 10 mM Tris pH 8 to a final concentration of 0.01 μg/μL, arrayed in 96-well plates and stored at −20 °C. For transfection, HEK293 cells were suspended in Opti-MEM (without phenol red) supplemented with 2% fetal bovine serum (Seradigm) and 100 units/mL penicillin–streptomycin (Gibco) at a final concentration of 220,000 cells/mL and dispensed into white 96-well plates at 90 μL/well. Subsequent transfections and screens were carried using an Agilent Bravo Automated Liquid Handling Platform. First, the 96-well HiBiT DNA arrays were diluted 25-fold in Opti-MEM (without serum or phenol red) to a final concentration of 0.0004 μg/μL and 20 μL of the diluted DNAs were transferred into new 96-well plates. Next, promoterless carrier DNA (1 μg/μL) was diluted 25-fold (0.04 μg/μL) and then dispensed into the diluted arrays at 20 μL/well. Following brief mixing, Viafect transfection reagent (Promega) diluted 16-fold into Opti-MEM was dispensed into the plates at 40 μL/well. After mixing by pipetting, plates were incubated for 10 min on the pipetting station deck. The DNA-transfection reagent complexes were then added to plates containing cells. To facilitate the screen, 10 μL of DNA-transfection reagent complexes were added in duplicates to the top 4 and bottom 4 rows, resulting in two identical 48-well arrays per plate. Plates with transfected cells were incubated for 18–20 h at 37 °C/5% CO2. A screen of each tracer across the entire library using two different concentrations requires duplicate plates of transfected cells. Depending on the number of tracers being screened, transfections can be scaled up using the same ratios. The next day, for each tracer, four 20× screening solutions in tracer dilution buffer (Promega) were prepared: two duplicates at final concentration of 20 μM and two duplicates at a final concentration of 2 μM. […] The four resulting solutions were diluted 4-fold in Opti-MEM without serum or phenol red to generate 5× solutions (5 µM and 0.5 µM tracer +/− 100 μM competing compound). To screen the library, a BioTek MultiFlo FX liquid dispenser was used to dispense 22.5 µL of tracer solution to the top 4 rows and 22.5 µL tracer + competing compound solution to the 4 bottom rows. Plates were briefly mixed on an orbital shaker and incubated for 1.5 h at room temperature. […] Plates were briefly mixed on an orbital shaker and incubated for 15 min to allow complementation.
A general note: Bioluminescence resonance energy transfer reports proximity on the nanometre scale.

T1 sequence (P41595 whole entry): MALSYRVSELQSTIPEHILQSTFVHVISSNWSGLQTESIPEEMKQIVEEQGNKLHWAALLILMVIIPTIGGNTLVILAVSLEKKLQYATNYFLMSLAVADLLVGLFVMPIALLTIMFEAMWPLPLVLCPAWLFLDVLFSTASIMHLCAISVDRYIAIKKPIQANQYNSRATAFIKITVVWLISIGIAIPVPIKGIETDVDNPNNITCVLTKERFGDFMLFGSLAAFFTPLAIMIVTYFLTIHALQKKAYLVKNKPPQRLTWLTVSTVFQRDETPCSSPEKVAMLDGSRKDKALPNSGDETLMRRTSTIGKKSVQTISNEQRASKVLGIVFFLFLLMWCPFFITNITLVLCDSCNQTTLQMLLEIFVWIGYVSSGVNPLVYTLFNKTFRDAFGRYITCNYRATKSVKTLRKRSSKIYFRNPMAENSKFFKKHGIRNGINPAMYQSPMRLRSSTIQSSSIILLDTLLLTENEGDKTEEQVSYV

Take `O=C(CCOCCOCCOCCOCCNC(=O)CCc1ccc2n1[B-](F)(F)[N+]1=C(c3ccc[nH]3)C=CC1=C2)NCCCN1CCN(C2=Nc3ccccc3Oc3ccc(Cl)cc32)CC1` [Loxapine-a-2-NB590]: the “NanoBRET Fold Response” value was 1.04 (HTR2B, tracer 0.1μM) and 1.25 (HTR2B, tracer 1μM).
Take `CCCn1c(=O)c2[nH]c(-c3ccc(OCC(=O)NCCNC(=O)CCOCCNC(=O)c4ccc(CNC(=O)CCc5ccc6n5[B-](F)(F)[N+]5=C(c7ccc[nH]7)C=CC5=C6)cc4)cc3)nc2n(CCC)c1=O` [XAC-3-NB590]: the “NanoBRET Fold Response” value is, setting by setting: (HTR2B, tracer 0.1μM) 1.29; (HTR2B, tracer 1μM) 0.78.
Turning to `CN(C)CCC=C1c2ccccc2CCc2ccc(C(=O)NCCNC(=O)CCOCCOCCOCCOCCNC(=O)CCc3ccc4n3[B-](F)(F)[N+]3=C(c5ccc[nH]5)C=CC3=C4)cc21` [Amitriptyline-a-2-NB590], the “NanoBRET Fold Response” value (tracer at 0.1μM) stood at 0.98 and the “NanoBRET Fold Response” value (tracer at 1μM) was found to be 1.09.
Turning to `COc1ccccc1N1CCN(CCCCN2C(=O)c3ccc(CNC(=O)CCOCCOCCOCCOCCNC(=O)CCc4ccc5n4[B-](F)(F)[N+]4=C(c6ccc[nH]6)C=CC4=C5)cc3C2=O)CC1` [NAN-190-2-NB590], the “NanoBRET Fold Response” value (HTR2B, tracer 0.1μM) is on record as 0.92.
`O=C(CCc1ccc2n1[B-](F)(F)[N+]1=C(c3ccc[nH]3)C=CC1=C2)NCc1ccc(C(=O)NCCOCCOCCNCC(O)COc2cccc3ccccc23)cc1` (centres unmarked) [Propranolol-3-NB590]: the “NanoBRET Fold Response” value is listed as 1.13 (HTR2B, 0.1μM) and 1.00 (HTR2B, 1μM).
With `COc1ccccc1N1CCN(CCCCN2C(=O)c3ccc(CNC(=O)CCOCCNC(=O)c4ccc(CNC(=O)CCc5ccc6n5[B-](F)(F)[N+]5=C(c7ccc[nH]7)C=CC5=C6)cc4)cc3C2=O)CC1` [NAN-190-3-NB590], the “NanoBRET Fold Response” value by setting is: (HTR2B, tracer 0.1μM) 0.92; (HTR2B, tracer 1μM) 0.80.
The matching figures for `O=C(CCc1ccc2n1[B-](F)(F)[N+]1=C(c3ccc[nH]3)C=CC1=C2)NCc1ccc(C(=O)NCCOCCC(=O)N[C@@H]2CC[C@@]3(O)[C@H]4Cc5ccc(O)c6c5[C@@]3(CCN4CC3CC3)[C@H]2O6)cc1` [Naltrexone-3-NB590]: 1.13 and 0.98.
On to `CCOC(=O)c1cc(C#N)c(N2CCC(C(=O)NS(=O)(=O)Cc3ccccc3/C=C/C(=O)NCCNC(=O)CCc3ccc4n3[B-](F)(F)[N+]3=C(c5ccc[nH]5)C=CC3=C4)CC2)nc1C` [AZD1283-1-NB590], for which the “NanoBRET Fold Response” value reads like this: (HTR2B, 0.1μM) 1.31; (HTR2B, 1μM) 1.15.
Regarding `COc1ccc2[nH]c(-c3ccc(CNC(=O)CCOCCOCCOCCOCCNC(=O)CCc4ccc5n4[B-](F)(F)[N+]4=C(c6ccc[nH]6)C=CC4=C5)cc3)c(CCNC(C)=O)c2n1` [AzomelatoninICO9-2-NB590], the “NanoBRET Fold Response” value is, setting by setting: (0.1μM tracer) 0.81; (1μM tracer) 1.08.
Turning to `CC(C)N(CC[C@H](c1ccccc1)c1cc(CCNC(=O)CCOCCOCCOCCOCCNC(=O)CCc2ccc3n2[B-](F)(F)[N+]2=C(c4ccc[nH]4)C=CC2=C3)ccc1O)C(C)C` [Tolterodine-2-NB590], the “NanoBRET Fold Response” value is, setting by setting: (HTR2B, tracer 0.1μM) 0.68; (HTR2B, tracer 1μM) 0.81.
For the molecule `N#CN=C(NCCCOc1cccc(CN2CCCCC2)c1)NCCNC(=O)CCOCCOCCOCCOCCNC(=O)CCc1ccc2n1[B-](F)(F)[N+]1=C(c3ccc[nH]3)C=CC1=C2` [Aminopotentidine-2-NB590], the “NanoBRET Fold Response” value is listed as 0.90 (HTR2B, tracer 0.1μM) and 0.91 (HTR2B, tracer 1μM).
Regarding `COc1ccc2c(n1)c(CCNC(C)=O)cn2CCNC(=O)CCc1ccc2n1[B-](F)(F)[N+]1=C(c3ccc[nH]3)C=CC1=C2` [Azamelatonin-1-NB590], the “NanoBRET Fold Response” value came to 0.98 (0.1μM tracer) and 0.98 (1μM tracer).
With `CN(CCC=C1c2ccccc2CCc2ccccc21)C(=O)CCOCCOCCOCCOCCNC(=O)CCc1ccc2n1[B-](F)(F)[N+]1=C(c3ccc[nH]3)C=CC1=C2` [Amitriptyline-e-2-NB590], the “NanoBRET Fold Response” value (tracer at 1μM) worked out at 1.02.
For `N#CN/C(=N\CCNC(=O)c1ccc(N)cc1)NCCCOc1cccc(CN2CCCCC2)c1` [Aminopotentidine (unmodified)], the “NanoBRET Fold Response” value runs as follows: (HTR2B, other tracers/Aminopotentidine (unmodified), 0.1μM) 1.03; (HTR2B, other tracers/Aminopotentidine (unmodified), 1μM) 0.97.
In the case of `CC(C)N(CC[C@H](c1ccccc1)c1cc(CCNC(=O)c2ccc(CNC(=O)CCc3ccc4n3[B-](F)(F)[N+]3=C(c5ccc[nH]5)C=CC3=C4)cc2)ccc1O)C(C)C` [Tolterodine-BZ-NB590], the “NanoBRET Fold Response” value is 0.83 (HTR2B, tracer 0.1μM) and 1.07 (HTR2B, tracer 1μM).
The like results for `O=C(CCc1ccc2n1[B-](F)(F)[N+]1=C(c3ccc[nH]3)C=CC1=C2)NCCOCCOCCNC(=O)OCCOCCN1CCN(C2=Nc3ccccc3Sc3ccccc32)CC1` [Quetiapine-a-2-NB590] were, in that order, 1.51 and 1.14.
The matching figures for `Cc1cc2c(s1)Nc1ccccc1N=C2N1CCN(CCCNC(=O)CCOCCOCCOCCOCCNC(=O)CCc2ccc3n2[B-](F)(F)[N+]2=C(c4ccc[nH]4)C=CC2=C3)CC1` [Olanzapine-a-2-NB590]: 1.12 and 1.36.
Regarding `CN(C)CCC=C1c2ccccc2CCc2ccc(C(=O)NCCNC(=O)CCOCCOCCOCCOCCNC(=O)CCc3ccc4n3[B-](F)(F)[N+]3=C(c5ccc[nH]5)C=CC3=C4)cc21` [Amitriptyline-b-2-NB590], the “NanoBRET Fold Response” value runs as follows: (tracer at 0.1μM, listed as amitriptyline-b-2-NB590) 1.05; (tracer at 1μM, listed as amitriptyline-b-2-NB590) 0.74.
As to `O=C(CCOCCOCCOCCOCCNC(=O)CCc1ccc2n1[B-](F)(F)[N+]1=C(c3ccc[nH]3)C=CC1=C2)NCCCN1CCN(C2=Nc3cc(Cl)ccc3Nc3ccccc32)CC1` [Clozapine-a-2-NB590], the “NanoBRET Fold Response” value came to 1.08 (HTR2B, 0.1μM tracer) and 1.14 (HTR2B, 1μM tracer).
Turning to `Cc1nc2n(c(=O)c1CCN1CCC(c3noc4cc(F)ccc34)CC1)CCCC2OC(=O)NCCOCCOCCOCCOCCNC(=O)CCc1ccc2n1[B-](F)(F)[N+]1=C(c3ccc[nH]3)C=CC1=C2` (centres unmarked) [Risperidone-2-NB590], the “NanoBRET Fold Response” value was determined as 1.03 (HTR2B, tracer 0.1μM) and 1.32 (HTR2B, tracer 1μM).
